Data from patent US12582641B2, “Sulfur-containing compound based on glutarimide skeleton and application thereof” (SHANGHAITECH UNIVERSITY, priority 2019, dated 2026).

Test system: MM.1S cells
Test: Proliferation inhibition (IC50) in MM.1S cells, cell viability assay
Conditions: Homo sapiens, MM1.S, 72 h, read-out: IC50 (nM), proliferation inhibitory activity of MM.1S cells (half inhibitory concentration)
Protocol: MM.1S (B lymphoblast) was purchased from ATCC. Complete medium was RPMI1640 supplemented with 10% FBS and 1% Penicillin-Streptomycin. The cells used were identified as correct cells by STR cells, and were negative for mycoplasma through routine inspections.
IC50 values of the compounds of the present disclosure were measured using Cell Titer Blue, Cell Titer GLO, or WST reagent from Promega Company. Assay details are as follows: Cells were seeded in 100 μL RPMI1640 complete medium containing serum at a density of 15,000 cells/well. After 24 h, the inoculated cells were treated with diluted commercial inhibitor and the compounds of the present disclosure to be tested after serial dilution. After the cells were treated with the compounds of the present disclosure to be tested for 72 h, cell viability was determined after adding the cell viability detection kit listed above according to the reagent operating instructions. The negative control was DMSO, and the positive control was a commercial inhibitor, both of which were used to treat the cells through the same method as that of the compounds of the present disclosure. The growth inhibition of the compounds of the present disclosure on cells was plotted by Prism Graphpad software, and the IC50 values of the compounds of the present disclosure were calculated therefrom.
We tested the activities of the compounds of the present invention in MM.1S cell (which overexpressed IKZF1/3 and is highly sensitive to immunomodulatory drugs) through a dose-dependent manner. The cells were treated with the compounds of the present invention at 10 different successively decreasing concentrations (starting at the highest concentration of 10 μM; 5-fold serial dilutions) for 72 h, and then the cell viability determination was performed in accordance with CCK-8 reagent operating instructions. The experiment was repeated more than three times.

Structure (SMILES)	IC50
O=C1CCC(N2Cc3c(SCCCNC45CC6CC(CC(C6)C4)C5)cccc3C2=O)C(=O)N1 (stereo not shown) [SIAIS1222177, 3-(4-((3-(adamantan-1-ylamino)propyl)thio)-1-oxoisoindolin-2-yl)piperidine-2,6-dione]	0.693 nM
O=C1CCC(N2C(=O)c3cccc(SCCCCCCCNC4CC5(CCC5)C4)c3C2=O)C(=O)N1 (stereo not shown) [SIAIS1224015, 2-(2,6-dioxopiperidin-3-yl)-4-((7-(spiro[3.3]heptan-2-ylamino)heptyl)thio)isoindoline-1,3-dione]	0.691 nM
O=C1CCC(N2Cc3c(SCCCCCCCNC(C4CC4)C4CC4)cccc3C2=O)C(=O)N1 (stereo not shown) [SIAIS1224031, 3-(4-((7-((dicyclopropylmethyl)amino)heptyl)thio)-1-oxoisoindolin-2-yl)piperidine-2,6-dione]	0.105 nM
O=C1CCC(N2Cc3c(SCCCCCCCN[C@@H]4CN5CCC4CC5)cccc3C2=O)C(=O)N1 (stereo partly drawn) [SIAIS1224035, 3-(1-oxo-4-((7-(((S)-quinuclidin-3-yl)amino)heptyl)thio)isoindolin-2-yl)piperidine-2,6-dione]	15.1 nM
O=C1CCC(N2Cc3c(SCCCCCCCN[C@H]4CN5CCC4CC5)cccc3C2=O)C(=O)N1 (stereo partly drawn) [SIAIS1224037, 3-(1-oxo-4-((7-(((R)-quinuclidin-3-yl)amino)heptyl)thio)isoindolin-2-yl)piperidine-2,6-dione]	14 nM
CS(=O)(=O)N1CCN(CCCCCCCSc2cccc3c2CN(C2CCC(=O)NC2=O)C3=O)CC1 (stereo not shown) [SIAIS1224039, 3-(4-((7-(4-(methylsulfonyl)piperazin-1-yl)heptyl)thio)-1-oxoisoindolin-2-yl)piperidine-2,6-dione]	0.54 nM
O=C1CCC(N2Cc3c(SCc4ccc(CN5CCSCC5)cc4)cccc3C2=O)C(=O)N1 (stereo not shown) [SIAIS1224089, 3-(1-oxo-4-((4-(thiomorpholinomethyl)benzyl)thio)isoindolin-2-yl)piperidine-2,6-dione]	0.144 nM
CN1C(=O)CCC(N2Cc3c(SCc4ccc(CN5CCCCC5)cc4)cccc3C2=O)C1=O (stereo not shown) [SIAIS1224101, 1-methyl-3-(1-oxo-4-((4-(piperidin-1-ylmethyl)benzyl)thio)isoindolin-2-yl)piperidine-2,6-dione]	287 nM
O=C1CCC(N2Cc3c(SCCc4ccc(CCN5CCCCC5)cc4)cccc3C2=O)C(=O)N1 (stereo not shown) [SIAIS1224117, 3-(1-oxo-4-((4-(2-(piperidin-1-yl)ethyl)phenethyl)thio)isoindolin-2-yl)piperidine-2,6-dione]	0.19 ± 0.01 nM
O=C1CCC(N2Cc3c(SCCc4ccc(CCNC56CC7CC(CC(C7)C5)C6)cc4)cccc3C2=O)C(=O)N1 (stereo not shown) [SIAIS1224121, 3-(4-((4-(2-((adamantan-1-yl)amino)ethyl)phenethyl)thio)-1-oxoisoindolin-2-yl)piperidine-2,6-dione]	0.48 ± 0.05 nM
O=C1CCC(N2Cc3c(SCCc4ccc(CNC56CC7CC(CC(C7)C5)C6)cc4)cccc3C2=O)C(=O)N1 (stereo not shown) [SIAIS1224149, 3-(4-((4-(((adamantan-1-yl)amino)methyl)phenethyl)thio)-1-oxoisoindolin-2-yl)piperidine-2,6-dione]	0.44 ± 0.1 nM
O=C1CCC(N2C(=O)c3cccc(SCCc4ccc(CNC56CC7CC(CC(C7)C5)C6)cc4)c3C2=O)C(=O)N1 (stereo not shown) [SIAIS1224151, 4-((4-(((adamantan-1-yl)amino)methyl)phenethyl)thio)-2-(2,6-dioxopiperidin-3-yl)isoindoline-1,3-dione]	3.41 nM
O=C1CCC(N2Cc3c(SCc4ccc(/C=C/Br)cc4)cccc3C2=O)C(=O)N1 (stereo not shown) [SIAIS1224154, (E)-3-(4-((4-(2-bromovinyl)benzyl)thio)-1-oxoisoindolin-2-yl)piperidine-2,6-dione]	0.809 nM
O=C1CCC(N2Cc3c(SCCc4ccc(CN5CCCCC5)cc4)cccc3C2=O)C(=O)N1 (stereo not shown) [SIAIS1224161, 3-(1-oxo-4-((4-(piperidin-1-ylmethyl)phenethyl)thio)isoindolin-2-yl)piperidine-2,6-dione]	3.62 nM
O=C1CCC(N2C(=O)c3cccc(SCCc4ccc(CN5CCCCC5)cc4)c3C2=O)C(=O)N1 (stereo not shown) [SIAIS1224163, 2-(2,6-dioxopiperidin-3-yl)-4-((4-(piperidin-1-ylmethyl)phenethyl)thio)isoindoline-1,3-dione]	7.41 nM
O=C1CCC(N2Cc3c(SCCc4ccc(CNC5CCCCC5)cc4)cccc3C2=O)C(=O)N1 (stereo not shown) [SIAIS1227007, 3-(4-((4-((cyclohexylamino)methyl)phenethyl)thio)-1-oxoisoindolin-2-yl)piperidine-2,6-dione]	0.67 ± 0.27 nM
O=C1CCC(N2C(=O)c3cccc(SCCc4ccc(CNC5CCCCC5)cc4)c3C2=O)C(=O)N1 (stereo not shown) [SIAIS1227019, 4-((4-((cyclohexylamino)methyl)phenethyl)thio)-2-(2,6-dioxopiperidin-3-yl)isoindoline-1,3-dione]	34.3 nM
O=C1CCC(N2Cc3c(SCCCc4ccc(CN5CCCCC5)cc4)cccc3C2=O)C(=O)N1 (stereo not shown) [SIAIS1227035, 3-(1-oxo-4-((3-(4-(piperidin-1-ylmethyl)phenyl)propyl)thio)isoindolin-2-yl)piperidine-2,6-dione]	0.14 ± 0.04 nM
O=C1CCC(N2C(=O)c3cccc(SCCCc4ccc(CN5CCCCC5)cc4)c3C2=O)C(=O)N1 (stereo not shown) [SIAIS1227039, 2-(2,6-dioxopiperidin-3-yl)-4-((3-(4-(piperidin-1-ylmethyl)phenyl)propyl)thio)isoindoline-1,3-dione]	2.49 nM
CCN(CC)Cc1ccc(CSc2cccc3c2CN(C2CCC(=O)NC2=O)C3=O)cc1 (stereo not shown) [SIAIS1227055, 3-(4-((4-((diethylamino)methyl)benzyl)thio)-1-oxoisoindolin-2-yl)piperidine-2,6-dione]	0.285 nM

The next compounds have a lower IC50 than those just listed; values first:

IC50	Structure (SMILES)
0.1 ± 0.05 nM	O=C1CCC(N2Cc3c(SCc4ccc(CCN5CCOCC5)cc4)cccc3C2=O)C(=O)N1 (stereo not shown) [SIAIS1227049, 3-(4-((4-(2-morpholinoethyl)benzyl)thio)-1-oxoisoindolin-2-yl)piperidine-2,6-dione]
0.095 nM	O=C1CCC(N2C(=O)c3cccc(SCCCc4ccc(CNC56CC7CC(CC(C7)C5)C6)cc4)c3C2=O)C(=O)N1 (stereo not shown) [SIAIS1227041, 4-((3-(4-(((adamantan-1-yl)amino)methyl)phenyl)propyl)thio)-2-(2,6-dioxopiperidin-3-yl)isoindoline-1,3-dione]
0.082 nM	O=C1CCC(N2Cc3c(SCCCCCCCN4Cc5ccccc5C4)cccc3C2=O)C(=O)N1 (stereo not shown) [SIAIS1224033, 3-(4-((7-(isoindolin-2-yl)heptyl)thio)-1-oxoisoindolin-2-yl)piperidine-2,6-dione]
0.079 nM	O=C1CCC(N2Cc3c(SCc4ccc(CCCN5CCOCC5)cc4)cccc3C2=O)C(=O)N1 (stereo not shown) [SIAIS1227053, 3-(4-((4-(3-morpholinopropyl)benzyl)thio)-1-oxoisoindolin-2-yl)piperidine-2,6-dione]
0.074 nM	O=C1CCC(N2Cc3c(SCCCCNC45CC6CC(CC(C6)C4)C5)cccc3C2=O)C(=O)N1 (stereo not shown) [SIAIS1222179, 3-(4-((4-((adamantan-1-yl)amino)butyl)thio)-1-oxoisoindolin-2-yl)piperidine-2,6-dione]
0.062 nM	O=C1CCC(N2Cc3c(SCCCCCCCNCC4CCCCC4)cccc3C2=O)C(=O)N1 (stereo not shown) [SIAIS1222199, 3-(4-((7-((cyclohexylmethyl)amino)heptyl)thio)-1-oxoisoindolin-2-yl)piperidine-2,6-dione]
0.06 ± 0.01 nM	O=C1CCC(N2Cc3c(SCc4ccc(CCCNC5CCCCC5)cc4)cccc3C2=O)C(=O)N1 (stereo not shown) [SIAIS1227045, 3-(4-((4-(3-(cyclohexylamino)propyl)benzyl)thio)-1-oxoisoindolin-2-yl)piperidine-2,6-dione]
0.048 nM	O=C1CCC(N2Cc3c(SCc4ccc(CNCC5CCCCO5)cc4)cccc3C2=O)C(=O)N1 (stereo not shown) [SIAIS1224019, 3-(1-oxo-4-((4-((((tetrahydro-2H-pyran-2-yl)methyl)amino)methyl)benzyl)thio)isoindolin-2-yl)piperidine-2,6-dione]
0.046 nM	O=C1CCC(N2Cc3c(SCCCCCCCN4CCC5(CC4)CC5)cccc3C2=O)C(=O)N1 (stereo not shown) [SIAIS1222195, 3-(4-((7-(6-azaspiro[2.5]octan-6-yl)heptyl)thio)-1-oxoisoindolin-2-yl)piperidine-2,6-dione]
0.046 nM	O=C1CCC(N2Cc3c(SCCCCCCCN4CCSCC4)cccc3C2=O)C(=O)N1 (stereo not shown) [SIAIS1224125, 3-(1-oxo-4-((7-thiomorpholinoheptyl)thio)isoindolin-2-yl)piperidine-2,6-dione]
0.04 ± 0.02 nM	O=C1CCC(N2Cc3c(SCCCc4ccc(CNC56CC7CC(CC(C7)C5)C6)cc4)cccc3C2=O)C(=O)N1 (stereo not shown) [SIAIS1227037, 3-(4-((3-(4-(((adamantan-1-yl)amino)methyl)phenyl)propyl)thio)-1-oxoisoindolin-2-yl)piperidine-2,6-dione]
0.028 ± 0.003 nM	O=C1CCC(N2Cc3c(SCc4ccc(CCCNC56CC7CC(CC(C7)C5)C6)cc4)cccc3C2=O)C(=O)N1 (stereo not shown) [SIAIS1227047, 3-(4-((4-(3-((adamantan-1-yl)amino)propyl)benzyl)thio)-1-oxoisoindolin-2-yl)piperidine-2,6-dione]
0.024 ± 0.002 nM	O=C1CCC(N2Cc3c(SCc4ccc(CCN5CCCCC5)cc4)cccc3C2=O)C(=O)N1 (stereo not shown) [SIAIS1224153, 3-(1-oxo-4-((4-(2-(piperidin-1-yl)ethyl)benzyl)thio)isoindolin-2-yl)piperidine-2,6-dione]
0.024 ± 0.006 nM	O=C1CCC(N2Cc3c(SCc4ccc(CCCN5CCCCC5)cc4)cccc3C2=O)C(=O)N1 (stereo not shown) [SIAIS1227043, 3-(1-oxo-4-((4-(3-(piperidin-1-yl)propyl)benzyl)thio)isoindolin-2-yl)piperidine-2,6-dione]
0.021 ± 0.004 nM	O=C1CCC(N2Cc3c(SCc4ccc(CCNC5CCCCC5)cc4)cccc3C2=O)C(=O)N1 (stereo not shown) [SIAIS1224155, 3-(4-((4-(2-(cyclohexylamino)ethyl)benzyl)thio)-1-oxoisoindolin-2-yl)piperidine-2,6-dione]
0.005 nM	O=C1CCC(N2Cc3c(SCc4ccc(CNCC5CCCCC5)cc4)cccc3C2=O)C(=O)N1 (stereo not shown) [SIAIS1222187, 3-(4-((4-(((cyclohexylmethyl)amino)methyl)benzyl)thio)-1-oxoisoindolin-2-yl)piperidine-2,6-dione]
0.004 ± 0.002 nM	O=C1CCC(N2Cc3c(SCc4ccc(CCN5CCSCC5)cc4)cccc3C2=O)C(=O)N1 (stereo not shown) [SIAIS1227051, 3-(1-oxo-4-((4-(2-thiomorpholinoethyl)benzyl)thio)isoindolin-2-yl)piperidine-2,6-dione]
